{"source": "patent US20250092383A1", "about": "“COMPOUNDS AND METHODS FOR FBXO22-MEDIATED PROTEIN DEGRADATION” (Northwestern University, priority 2023, published 2025)", "type_in_all_cases": "cell-based", "key": {"[1]": {"target": "T1, FKBP12-EGFP (Homo sapiens, UniProt P62942)", "T1 construct": "expressed in transfected cells", "T1 sequence (P62942 whole entry)": "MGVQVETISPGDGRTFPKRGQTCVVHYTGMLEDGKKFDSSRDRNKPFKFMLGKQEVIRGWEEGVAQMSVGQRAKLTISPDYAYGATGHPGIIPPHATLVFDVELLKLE", "assay": "E3 ligase focused CRISPR-Cas9 transcriptional activation screen for FKBP12-EGFP degradation", "conditions": "2 μM 22-SLF, 24 hours, HEK293T CRISPR-Cas9 transcriptional activation cells", "protocol": "(§1) FIGS. 1A-1E show an E3 ligase focused CRISPR-Cas9 transcriptional activation screen identifies FBXO22 that supports 22-SLF-induced reduction in FKBP12-EGFP expression levels. FIG. 1A is a schematic representation of the steps in the CRISPR-Cas9 transcriptional activation screen. […] FIG. 1C is a volcano plot showing the E3 ligase focused CRISPR-Cas9 transcriptional activation screen for FKBP12-EGFP degradation after treatment of 2 μM 22-SLF in HEK293T CRISPR-Cas9 transcriptional activation cells for 24 hours. […] The statistical significance was evaluated through unpaired two-tailed Student's t-tests, comparing cells transduced with FBXO22 sgRNA to control sgRNA. Statistical significance denoted ****P<0.0001. […] The statistical significance was evaluated through unpaired two-tailed Student's t-tests, comparing cells treated with 22-SLF to DMSO. Statistical significance denoted as ***P<0.001 and ns: not significant.\nWith the CRISPR-Cas9 transcriptional activation cells, a CRISPR-Cas9 transcriptional activation pool screen was developed to identify E3 ligases that support FKBP12 degradation by FKBP12-directed heterobifunctional compounds. […] Subsequently, cells from the bottom 15% of the GFP population were isolated using fluorescence-activated cell sorting (FIG. 1a and FIG. 7). […]"}, "[2]": {"target": "T1, FKBP12-EGFP", "assay": "Fluorescence quantification of FKBP12-EGFP levels in HEK293T cells", "conditions": "HEK293T CRISPR activation cells with FBXO22-activating sgRNAs; 2 μM, 24 hours", "protocol": "as §1\nFIGS. 6A-6E show generation of CRISPR-Cas9 transcriptional activation cells for the discovery of E3 ligases supporting the degradation of FKBP12-EGFP. […] The statistical significance was evaluated through unpaired two-tailed Student's t-tests, comparing cells treated with Len-SLF or SLF to DMSO. […] The statistical significance was evaluated through unpaired two-tailed Student's t-tests, comparing cells transduced with IL-1β sgRNA to control sgRNA. […]"}, "[3]": {"target": "T2, CUTA (Homo sapiens, UniProt O60888)", "T2 construct": "endogenous in cells; host or cells: A549 parental and FBXO22 knockout", "T2 sequence (O60888 33-179)": "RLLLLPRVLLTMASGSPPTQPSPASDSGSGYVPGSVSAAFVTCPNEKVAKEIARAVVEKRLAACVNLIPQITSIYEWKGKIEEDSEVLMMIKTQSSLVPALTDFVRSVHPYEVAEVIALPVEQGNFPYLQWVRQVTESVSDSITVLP", "assay": "MS-based global proteomic analysis in A549 parental and FBXO22 knockout cells (CUTA)", "conditions": "2 μM, 24 hours", "excerpt": "As an F-box protein, FBXO22 is a pivotal player in the context of tumor progression. FBXO22 has many oncogenic functions, including propelling the ubiquitination and subsequent degradation of a diverse spectrum of substrates, such as histone lysine demethylase 4 subfamily KDM4A/B, methylated p53, p21, PTEN, KLF4, and LKB1. […] To establish the role of endogenous FBXO22 in facilitating 22-SLF-induced FKBP12 degradation, FBXO22 knockout was used in a panel of cancer cell lines, including A549 (lung cancer), MDA-MB-231 (breast cancer), and PC3 (prostate cancer). The efficacy of FBXO22 knockout was verified through both genomic PCR and global proteomic analysis (FIG. 8b,c). […] Furthermore, mass spectrometry (MS)-based global proteomic analysis was conducted on A549 parental and FBXO22 knockout cells, following the treatment with 2 μM 22-SLF for 24 hours. […] To further substantiate the engagement of FBXO22 by the electrophilic portion of 22-SLF, a biotin-conjugated probe known as 22-biotin (FIG. 2f) was synthesized. This probe was then immobilized onto streptavidin-coated beads, which were subsequently subjected to interaction with lysates from HEK293T cells expressing HA-tagged FBXO22."}}, "data": [{"smiles": "CCC(C)(C)C(=O)C(=O)N1CCCC[C@H]1C(=O)O[C@H](CCc1ccc(OC)c(OC)c1)c1cccc(OCC(=O)NCCCOCCOCCOCCCN(C(=O)CCl)C(C(=O)NCc2ccccc2)c2nc3ccccc3s2)c1", "note": "(stereo partly drawn) [22-SLF]", "values": [{"measurement": "Enrichment of sgRNAs in sorted low-GFP cells", "setting": "[1]", "result": "substantial enrichment of two distinct sgRNAs targeting the same E3 ligase, FBXO22"}, {"measurement": "FKBP12-EGFP expression in FBXO22-activated cells", "setting": "[2]", "result": "loss of FKBP12-EGFP expression"}, {"measurement": "CUTA protein reduction in global proteomics", "setting": "[3]", "result": "observed to undergo reduction upon 22-SLF treatment in A549 parental cells, but not in the FBXO22 knockout setting"}]}]}
